Data: ChEMBL document CHEMBL1201862, “PubChem BioAssay data set” (2004)
Activity calls are given as the source filed them.

Key:
[1] = growth suppression of beta-catenin-knockout colon cells, dose response, cell-based, HCT116, human colon tumor (AID 1045); type: functional;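 further: HCT116 colon tumor cells with beta catenin knocked out; cells exposed to compound for 60 hours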
[2] = A Cell Based Secondary Assay To Explore Cytotoxicity of Compounds that Sensitize Mycobacterium Tuberculosis to Beta-Lactam Antibiotics.; type: functional
[3] = growth suppression of PTEN-null colon cells, dose response, cell-based, HCT116 PTEN knockout (AID 1047); type: functional;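 further: HCT116 colon tumor cells with PTEN knocked out; cells exposed to compound for 60 hours before readout; potency for loss of cell viability measured by luminescence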
[4] = Vero E6 cell cytotoxicity, dose response, cytotoxicity control for non-replicating M. tuberculosis project, secondary assay (AID 492998); type: functional, VeroE6; conditions: Vero C1008
cells = type: functional
[5] = THP-1 cell cytotoxicity, dose response, cytotoxicity control for non-replicating M. tuberculosis project (AID 489025); type: functional
[6] = test system: Streptococcus sp. 'group A'; assay: growth inhibition of control SK(-) GAS strain, dose response, counter-screen for streptokinase expression inhibitor project, luminescence, kanamycin, BacTiterGlo, confirmation (AID 1900); type: functional, organism-based
Streptococcus = assay: Group A Streptococcus viability loss, dose response, counter-screen for streptokinase expression inhibitor project, luminescence, BacTiterGlo (AID 1915); type: functional, organism-based;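 further: potency for reduction of bacterial viability or growth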
Cytochrome P450 3A4 = Cytochrome P450 3A4 (Homo sapiens, UniProt P08684);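 further: CYP3A4 tested as one member of a cytochrome P450 panel screen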
[7] = C. albicans growth with fluconazole, confirmation, fluorescence, retest (AID 2467); type: functional, cell-based
[8] = molecular target: T1, Heat shock factor protein 1 (Mus musculus, UniProt P38532); assay: HSF1 potentiators in luciferase reporter cells, confirmation, cell-based, NIH3T3, luminescence, dose retest (AID 435004); type: functional;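 further: stress induced by proteasome inhibitor MG132 added 30 min after compound; luciferase reporter driven by HSF1 response element in NIH3T3 cells; actives raise luminescence as potentiators of the MG132 stress response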
T1 sequence (P38532 whole entry): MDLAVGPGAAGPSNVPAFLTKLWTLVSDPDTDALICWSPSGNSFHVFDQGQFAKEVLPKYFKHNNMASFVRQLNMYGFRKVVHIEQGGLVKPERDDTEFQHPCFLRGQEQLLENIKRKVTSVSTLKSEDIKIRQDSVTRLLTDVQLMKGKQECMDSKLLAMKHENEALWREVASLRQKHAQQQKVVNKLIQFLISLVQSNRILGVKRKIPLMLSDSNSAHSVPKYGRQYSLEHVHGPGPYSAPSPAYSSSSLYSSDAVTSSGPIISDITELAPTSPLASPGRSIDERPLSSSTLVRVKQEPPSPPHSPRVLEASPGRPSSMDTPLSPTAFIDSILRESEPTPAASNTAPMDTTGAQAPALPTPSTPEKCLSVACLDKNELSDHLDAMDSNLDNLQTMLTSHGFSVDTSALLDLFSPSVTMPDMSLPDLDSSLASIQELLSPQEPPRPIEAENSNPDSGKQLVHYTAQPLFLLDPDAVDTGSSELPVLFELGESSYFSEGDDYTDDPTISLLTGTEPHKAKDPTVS

[9] = inhibitors of intracellular T. cruzi replication, confirmation, NIH3T3 host cells, beta-gal luminescence (AID 2044); type: functional, cell-based;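 further: intracellular parasites grown in NIH/3T3 mouse fibroblasts as host cells; luminescent beta-galactosidase reporter signal from transgenic T. cruzi replicating inside host cells; inhibitors lower the luminescence signal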
[10] = molecular target: T2, Short transient receptor potential channel 4 (Mus musculus, UniProt Q9QUQ5); assay: mouse TRPC4 channel inhibitors, dose response, cell-based, HEK293 TRPC4/mu-opioid, Fluo-4 calcium (AID 434942); type: functional;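 further: potency of inhibitors blocking the TRPC4 calcium response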
T2 sequence (Q9QUQ5 whole entry): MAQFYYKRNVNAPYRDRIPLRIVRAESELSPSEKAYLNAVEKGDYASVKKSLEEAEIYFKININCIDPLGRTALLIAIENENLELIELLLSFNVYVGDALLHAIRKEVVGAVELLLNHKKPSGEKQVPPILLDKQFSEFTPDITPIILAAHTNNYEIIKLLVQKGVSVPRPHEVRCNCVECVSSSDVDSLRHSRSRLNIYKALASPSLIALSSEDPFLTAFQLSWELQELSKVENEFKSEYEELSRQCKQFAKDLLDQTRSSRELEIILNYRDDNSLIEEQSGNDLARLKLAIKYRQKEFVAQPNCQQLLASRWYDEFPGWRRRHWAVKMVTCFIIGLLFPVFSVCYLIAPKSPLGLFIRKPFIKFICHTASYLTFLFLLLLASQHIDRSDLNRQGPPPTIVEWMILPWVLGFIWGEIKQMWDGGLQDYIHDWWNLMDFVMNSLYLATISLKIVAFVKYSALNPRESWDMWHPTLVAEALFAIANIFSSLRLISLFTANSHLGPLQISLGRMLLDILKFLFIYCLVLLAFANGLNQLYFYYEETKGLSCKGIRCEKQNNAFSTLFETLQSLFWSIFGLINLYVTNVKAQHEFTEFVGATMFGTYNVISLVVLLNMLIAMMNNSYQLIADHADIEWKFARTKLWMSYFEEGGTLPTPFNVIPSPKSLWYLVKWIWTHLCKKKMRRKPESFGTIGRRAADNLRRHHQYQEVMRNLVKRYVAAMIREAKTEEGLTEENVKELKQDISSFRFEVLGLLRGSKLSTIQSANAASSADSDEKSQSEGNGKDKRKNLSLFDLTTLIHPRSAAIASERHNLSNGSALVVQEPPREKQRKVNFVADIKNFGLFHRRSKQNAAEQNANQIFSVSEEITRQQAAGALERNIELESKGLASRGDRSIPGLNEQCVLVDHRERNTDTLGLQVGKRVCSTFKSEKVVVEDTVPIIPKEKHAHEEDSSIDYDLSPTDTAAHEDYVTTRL

[11] = NIH-3T3 fibroblast cytotoxicity, dose response, cytotoxicity control, cell-based, fluorescence, Alamar Blue, secondary assay (AID 2327); type: functional;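 further: NIH-3T3 mouse fibroblasts cultured with fluconazole at 8 µg/mL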
INS1 = assay: beta cell apoptosis inhibitors, cytokine rescue, dose response, luminescence, retest (AID 449756); type: functional, cell-based; conditions: Rattus norvegicus;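 further: cell death triggered by IL-1 beta plus TNF-alpha plus IFN-gamma mixture; protective hits raise ATP signal compared with cytokine alone wells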
[12] = cytotoxicity toward NIH3T3 fibroblasts, dose response, counter-screen, cell-based, ATP luminescence, mouse fibroblasts (AID 2010); type: functional;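 further: cells exposed to compound for about 90 hours before reading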
[13] = cytotoxicity toward DRD oncogenic fibroblasts, dose response, cell-based, non-viral oncogenic, luminescence (AID 1934); type: functional; conditions: Homo sapiens
BJ [14] = assay: cytotoxicity toward BJ-TERT fibroblasts, dose response, cell-based, RAS-independent, luminescence (AID 1933); type: functional; conditions: Homo sapiens
[15] = cytotoxicity in HEK-293T cells, dose response, cytotoxicity control for TCR NF-kB inhibitor project, luminescence, T-cell screen hits (AID 489026); type: functional, cell-based;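 further: cells exposed to compound about 14 hours before the viability readout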
BJ [16] = assay: cytotoxicity toward BJ-TERT-LT-ST fibroblasts, dose response, cell-based, RAS-independent, luminescence (AID 1935); type: functional; conditions: Homo sapiens;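 further: BJ fibroblasts immortalized with TERT plus LT and ST oncogenes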
BJ [17] = assay: cells; type: functional, cell-based; conditions: Homo sapiens
[18] = cytotoxicity in HEK-293T cells, dose response, cytotoxicity control for BCR NF-kB inhibitor project, luminescence, B-cell screen hits (AID 489021); type: functional, cell-based;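 further: HEK-293T cells carrying an NF-kB luciferase reporter; cells exposed to compound for about 14 hours before viability readout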
[19] = molecular target: T1, Heat shock factor protein 1; assay: inhibition of MG132-induced HSE-luciferase signal, confirmation, cell-based, NIH3T3, luminescence, dose retest (AID 2382); type: functional;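 further: NIH3T3 fibroblasts with HSF1-driven luciferase reporter stressed by proteasome inhibitor MG132; luminescence from HSF1-driven luciferase expression after 8 hours of MG132 stress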
[20] = molecular target: T3, Microphthalmia-associated transcription factor (Homo sapiens, UniProt O75030); assay: TRPM1 promoter luciferase signal decrease, dose response, MITF inhibitor project, cell-based, SK-MEL-5, cherry-picked, set 3 (AID 493073); type: functional
T3 sequence (O75030 whole entry): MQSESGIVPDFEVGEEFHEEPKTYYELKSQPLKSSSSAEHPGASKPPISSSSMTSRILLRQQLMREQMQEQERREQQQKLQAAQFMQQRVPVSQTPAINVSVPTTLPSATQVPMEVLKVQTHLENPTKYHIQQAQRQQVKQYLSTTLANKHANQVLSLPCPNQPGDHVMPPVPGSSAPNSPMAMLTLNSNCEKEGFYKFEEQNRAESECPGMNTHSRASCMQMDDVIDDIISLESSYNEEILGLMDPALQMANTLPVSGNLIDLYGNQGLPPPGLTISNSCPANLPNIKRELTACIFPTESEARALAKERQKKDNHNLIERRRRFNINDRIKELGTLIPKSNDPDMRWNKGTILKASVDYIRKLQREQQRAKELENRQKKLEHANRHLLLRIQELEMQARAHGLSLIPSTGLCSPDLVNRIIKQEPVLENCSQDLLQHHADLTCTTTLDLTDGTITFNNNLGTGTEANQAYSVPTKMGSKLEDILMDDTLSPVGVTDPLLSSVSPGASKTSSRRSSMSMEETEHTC

Chain of Cytochrome P450 3A4 (P08684 whole entry): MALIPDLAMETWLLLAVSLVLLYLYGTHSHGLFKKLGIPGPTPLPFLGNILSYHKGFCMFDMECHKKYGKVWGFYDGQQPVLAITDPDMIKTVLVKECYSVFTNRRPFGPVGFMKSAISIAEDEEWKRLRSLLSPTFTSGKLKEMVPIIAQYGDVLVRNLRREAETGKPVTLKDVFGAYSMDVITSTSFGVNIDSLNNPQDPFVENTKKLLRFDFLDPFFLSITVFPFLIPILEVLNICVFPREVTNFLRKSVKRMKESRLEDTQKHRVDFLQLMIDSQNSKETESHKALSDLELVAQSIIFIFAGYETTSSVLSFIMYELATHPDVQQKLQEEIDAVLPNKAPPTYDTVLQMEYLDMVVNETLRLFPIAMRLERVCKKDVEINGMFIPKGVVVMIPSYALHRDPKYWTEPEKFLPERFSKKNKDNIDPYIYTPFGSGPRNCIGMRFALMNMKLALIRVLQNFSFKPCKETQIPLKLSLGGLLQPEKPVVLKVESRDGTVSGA

SMILES: COc1cc2c(=O)n(Cc3ccco3)c(=O)n(CC(=O)c3cccc(Br)c3)c2cc1OC
- EC50 [1]: 9.71 µM (active)
- CC50 [2]: 22.2 µM (active)
- EC50 [3]: 9.13 µM (active)

SMILES: CC(C)(C)c1ccc(C(=O)Nc2nnc(C3=COCCO3)o2)cc1
- CC50 [4]: > 20 µM (active)
- IC50 (cells): 2.11 µM (active)
- CC50 [5]: 34.2 µM (active)
- EC50 [6]: 0.429 µM (active)
- EC50 (Streptococcus): 9.1 µM (active)

SMILES: Cn1c(S)nnc1CCNC(=O)c1ccccc1Cl
- AC50 (Cytochrome P450 3A4): inconclusive

SMILES: CC#CC[N+](C)(C)CCCCCCCCCCCC
- EC50 [1]: 5.82 µM (active)
- EC50 [7]: 2.85 µM (active)
- EC50 [8]: > 260 µM (inactive)
- CC50 [2]: > 40 µM (active)
- EC50 [9]: 1.05 µM (active)
- EC50 [10]: 1.5 µM (active)
- EC50 [11]: > 150 µM (inactive)
- EC50 [3]: 4.9 µM (active)
- AC50 (INS1): 1.85 µM (active)
- EC50 [12]: > 30 µM (not active)

SMILES: O=C(c1csnn1)N1CCC2(CC1)CN(c1ccccn1)C2
- AC50 (Cytochrome P450 3A4): inconclusive

SMILES: COC(=O)c1cc2c(cn1)[nH]c1ccccc12 [BETA-CCM]
- AC50 (Cytochrome P450 3A4): inconclusive

SMILES: CCOC(=O)c1cc(-c2ccc(C)cc2)n(CCC(=O)N2CCN(c3ccccn3)CC2)c1C
- CC50 [2]: > 40 µM (active)

SMILES: CCOc1ccccc1C1CC(=O)Nc2cc(C)c(C)cc21 (stereo not given)
- EC50 [13]: 18.1 µM (active)
- EC50 (BJ [14]): 14 µM (active)
- IC50 [15]: > 80 µM (inactive)
- EC50 (BJ [16]): 23.5 µM (active)
- EC50 (BJ [17]): 53.3 µM (active)

SMILES: O=C1CCC2S/C(=C/Nc3ccc(C(F)(F)F)cc3)C(=O)N12 (stereo not given)
- IC50 [18]: > 80 µM (inactive)
- EC50 [19]: 2.44 µM (active)
- AC50 [20]: 3.57 µM (active)

SMILES: COc1ccccc1CNS(=O)(=O)c1ccc(-c2cc(C)no2)cc1
- EC50 [13]: 1.34 µM (active)
- EC50 (BJ [14]): 1.92 µM (active)
- IC50 [15]: 79.8 µM (inactive)
- EC50 (BJ [16]): 0.83 µM (active)
- EC50 (BJ [17]): 53.8 µM (inconclusive)
